Tested on: Phosphorylation of STAT6 in human A549 cells
Assay: Phosphorylated STAT6 (pSTAT6) flow cytometry assay in human A549 cells
Type: cell-based
Conditions: read-out: STAT6 IL4 pSTAT6 assay in A549 cells: Average IC50
Excerpt: Example 3. Phosphorylated STAT6 (pSTAT6) Flow Cytometry Assay in Human A549 Cells
Phosphorylation of STAT6 in human A549 cells was quantitatively measured using flow cytometry technology.

COc1cc(F)cnc1N1CCN(C(=O)c2cc3c(C4=CCCC4)cc(C4=CCCN(C(=O)CCn5ccnn5)C4)c(F)c3[nH]2)CC1 [Example I-1134]
IC50: < 0.1 µM

COc1cc(F)cnc1N1CCN(C(=O)c2cc3c(C4=CCCCC4)cc(C4=CCCN(C(=O)CCn5ccnn5)C4)c(F)c3[nH]2)CC1 [Example I-1135]
IC50: < 0.1 µM

COc1cc(F)cnc1N1CCN(C(=O)c2cc3c(-c4ccc(=O)n(Cc5ccccc5)c4)cc(C4=CCCN(C(=O)CCn5ccnn5)C4)c(F)c3[nH]2)CC1 [Example I-1136]
IC50: < 0.1 µM

COc1cc(F)cnc1N1CCN(C(=O)c2cc3c(-c4ccc(CN5CCOCC5)nc4)cc(C4=CCCN(C(=O)CCn5ccnn5)C4)c(F)c3[nH]2)CC1 [Example I-1137]
IC50: < 0.1 µM

COc1cc(F)cnc1N1CCN(C(=O)c2cc3c(-c4ccc(N5C[C@@H](C)O[C@@H](C)C5)nc4)cc(C4=CCCN(C(=O)CCn5ccnn5)C4)c(F)c3[nH]2)CC1 [Example I-1138]
IC50: < 0.1 µM

COc1cc(F)cnc1N1CCN(C(=O)c2cc3c(-c4ccc(C#N)c(C)c4)cc(C4=CCCN(C(=O)CCn5ccnn5)C4)c(F)c3[nH]2)CC1 [Example I-1139]
IC50: < 0.1 µM

COc1cc(F)cnc1N1CCN(C(=O)c2cc3c(-c4ccc(C5(C#N)CC5)cc4)cc(C4=CCCN(C(=O)CCn5ccnn5)C4)c(F)c3[nH]2)CC1 [Example I-1140]
IC50: < 0.1 µM

COc1cc(F)cnc1N1CCN(C(=O)c2cc3c(C4=CCC(C#N)CC4)cc(C4=CCCN(C(=O)CCn5ccnn5)C4)c(F)c3[nH]2)CC1 (centres unmarked) [Example I-1141]
IC50: < 0.1 µM

COc1cc(F)cnc1N1CCN(C(=O)c2cc3c(-c4ccc(C(C)(C)C#N)cc4)cc(C4=CCCN(C(=O)CCn5ccnn5)C4)c(F)c3[nH]2)CC1 [Example I-1142]
IC50: < 0.1 µM

COc1cc(F)cnc1N1CCN(C(=O)c2cc3c(-c4ccc(C(=O)N5CCCC5)cc4F)cc(C4=CCCN(C(=O)CCn5ccnn5)C4)c(F)c3[nH]2)CC1 [Example I-1143]
IC50: < 0.1 µM

COc1cc(F)cnc1N1CCN(C(=O)c2cc3c(-c4ccc(C(=O)N5CCCC5)c(F)c4)cc(C4=CCCN(C(=O)CCn5ccnn5)C4)c(F)c3[nH]2)CC1 [Example I-1144]
IC50: < 0.1 µM

COc1cc(F)cnc1N1CCN(C(=O)c2cc3c(-c4ccc(C(O)C(F)(F)F)cc4)cc(C4=CCCN(C(=O)CCn5ccnn5)C4)c(F)c3[nH]2)CC1 (centres unmarked) [Example I-1145]
IC50: < 0.1 µM

COc1cc(F)cnc1N1CCN(C(=O)c2cc3c(-c4ccc(C5(O)CCC5)cc4)cc(C4=CCCN(C(=O)CCn5ccnn5)C4)c(F)c3[nH]2)CC1 [Example I-1146]
IC50: < 0.1 µM

COCOc1ccc(-c2cc(C3=CCCN(C(=O)CCn4ccnn4)C3)c(F)c3[nH]c(C(=O)N4CCN(c5ncc(F)cc5OC)CC4)cc23)cc1 [Example I-1147]
IC50: < 0.1 µM

COc1cc(F)cnc1N1CCN(C(=O)c2cc3c(-c4ccc5c(c4)OCCCO5)cc(C4=CCCN(C(=O)CCn5ccnn5)C4)c(F)c3[nH]2)CC1 [Example I-1148]
IC50: < 0.1 µM

COc1ccncc1-c1cc(C2=CCCN(C(=O)CCn3ccnn3)C2)c(F)c2[nH]c(C(=O)N3CCN(C4CCCCC4)CC3)cc12 [Example I-1149]
IC50: < 0.1 µM

COc1cccnc1N1CCN(C(=O)c2cc3c(C4=CCN(C)CC4C)cc(C4=CCCN(C(=O)CCn5ccnn5)C4)c(F)c3[nH]2)CC1 (centres unmarked) [Example I-1150]
IC50: < 0.1 µM

COc1cc(F)cnc1N1CCN(C(=O)c2cc3c(-c4cnn(C5CC5)c4)cc(C4=CCCN(C(=O)CCn5ccnn5)C4)c(F)c3[nH]2)CC1 [Example I-1151]
IC50: < 0.1 µM

COc1cc(F)cnc1N1CCN(C(=O)c2cc3c(-c4ccc(-c5cccnc5)cc4)cc(C4=CCCN(C(=O)CCn5ccnn5)C4)c(F)c3[nH]2)CC1 [Example I-1152]
IC50: < 0.1 µM

COc1cc(F)cnc1N1CCN(C(=O)c2cc3c(C4=CCC(N5CCOCC5)CC4)cc(C4=CCCN(C(=O)CCn5ccnn5)C4)c(F)c3[nH]2)CC1 (centres unmarked) [Example I-1153]
IC50: < 0.1 µM

COc1cc(F)cnc1N1CCN(C(=O)c2cc3c(-c4cccc(CN5CCOCC5)c4)cc(C4=CCCN(C(=O)CCn5ccnn5)C4)c(F)c3[nH]2)CC1 [Example I-1154]
IC50: < 0.1 µM

COc1cc(F)cnc1N1CCN(C(=O)c2cc3c(C4=COCCC4)cc(C4=CCCN(C(=O)CCn5ccnn5)C4)c(F)c3[nH]2)CC1 [Example I-1155]
IC50: < 0.1 µM

COc1cc(F)cnc1N1CCN(C(=O)c2cc3c(C4=CCOCC4)cc(C4=CCCN(C(=O)CCn5ccnn5)C4)c(F)c3[nH]2)CC1 [Example I-1156]
IC50: < 0.1 µM

COc1cc(F)cnc1N1CCN(C(=O)c2cc3c(-c4ccc(C5CC5)cc4)cc(C4=CCCN(C(=O)CCn5ccnn5)C4)c(F)c3[nH]2)CC1 [Example I-1157]
IC50: < 0.1 µM

COc1cc(F)cnc1N1CCN(C(=O)c2cc3c(C4=CCC(F)(F)CC4)cc(C4=CCCN(C(=O)CCn5ccnn5)C4)c(F)c3[nH]2)CC1 [Example I-1158]
IC50: < 0.1 µM

COc1cc(F)cnc1N1CCN(C(=O)c2cc3c(C4=CCC5(CC4)CC5)cc(C4=CCCN(C(=O)CCn5ccnn5)C4)c(F)c3[nH]2)CC1 [Example I-1159]
IC50: 0.1 to 1 µM

COc1cc(F)cnc1N1CCN(C(=O)c2cc3c(-c4ccc(C(F)F)cc4)cc(C4=CCCN(C(=O)CCn5ccnn5)C4)c(F)c3[nH]2)CC1 [Example I-1160]
IC50: < 0.1 µM

COc1cc(F)cnc1N1CCN(C(=O)c2cc3c(C4=Cc5ccccc5C4)cc(C4=CCCN(C(=O)CCn5ccnn5)C4)c(F)c3[nH]2)CC1 [Example I-1161]
IC50: 0.1 to 1 µM

COc1cc(F)cnc1N1CCN(C(=O)c2cc3c(/C=C/CCl)cc(C4=CCCN(C(=O)CCn5ccnn5)C4)c(F)c3[nH]2)CC1 [Example I-1162]
IC50: 1 to 10 µM

COc1cc(F)cnc1N1CCN(C(=O)c2cc3c(/C=C/C4CCCCC4)cc(C4=CCCN(C(=O)CCn5ccnn5)C4)c(F)c3[nH]2)CC1 [Example I-1163]
IC50: 0.1 to 1 µM

COc1cc(F)cnc1N1CCN(C(=O)c2cc3c(-c4ccc(OCC5CC5)nc4)cc(C4=CCCN(C(=O)CCn5ccnn5)C4)c(F)c3[nH]2)CC1 [Example I-1164]
IC50: 0.1 to 1 µM

COc1cc(F)cnc1N1CCN(C(=O)c2cc3c(-c4ccc(C(=O)N(C)C)cc4)cc(C4=CCCN(C(=O)CCn5ccnn5)C4)c(F)c3[nH]2)CC1 [Example I-1165]
IC50: < 0.1 µM

COc1cc(F)cnc1N1CCN(C(=O)c2cc3c(-c4ccc(OC5CCCCO5)cc4)cc(C4=CCCN(C(=O)CCn5ccnn5)C4)c(F)c3[nH]2)CC1 (centres unmarked) [Example I-1166]
IC50: < 0.1 µM

COc1cc(F)cnc1N1CCN(C(=O)c2cc3c(-c4ccc(C(F)(F)F)cc4CO)cc(C4=CCCN(C(=O)CCn5ccnn5)C4)c(F)c3[nH]2)CC1 [Example I-1167]
IC50: < 0.1 µM

CCC1CCCC=C1c1cc(C2=CCCN(C(=O)CCn3ccnn3)C2)c(F)c2[nH]c(C(=O)N3CCN(c4ncccc4OC)CC3)cc12 (centres unmarked) [Example I-1168]
IC50: 0.1 to 1 µM

CCc1ccncc1-c1cc(C2=CCCN(C(=O)CCC(=O)O)C2)c(F)c2[nH]c(C(=O)N3CCN(c4ncc(F)cc4OC)CC3)cc12 [Example I-1170]
IC50: 0.1 to 1 µM

COc1ccccc1-c1cc(C2=CCCN(C(=O)CCn3ccnn3)C2)c(F)c2[nH]c(CN3CCN(c4ncccc4OC)CC3=O)cc12 [Example I-1171]
IC50: 0.1 to 1 µM

CCC1=C(c2cc(C3=CCCN(C(=O)CCn4ccnn4)C3)c(F)c3[nH]c(C(=O)N4CCN(c5ncc(F)cc5OC)CC4)cc23)CCCC1 [Example I-1172]
IC50: 0.1 to 1 µM

CCOC(=O)CC(=O)N1CCC=C(c2cc3cc(C(=O)N4CCN(c5ncc(F)cc5OC)CC4)cc(-c4ccc(C)nc4CC)c3n2CC2CC2)C1 [Example I-1173]
IC50: 0.1 to 1 µM

CCn1nccc1-c1cc(C2=CCCN(C(C)=O)C2)c(F)c2[nH]c(C(=O)N3Cc4cnn(CC)c4C3)cc12 [Example I-1176]
IC50: < 0.1 µM

CN(C)C(=O)c1cc2cc(C3=CCCN(C(=O)CCn4ccnn4)C3)cc(CN3CCCCC3)c2o1 [Example I-1178]
IC50: 0.1 to 1 µM

CN(C)C(=O)c1cc2cc(C3=CCCN(C(=O)CCn4ccnn4)C3)cc(CN3CCNCC3)c2o1 [Example I-1179]
IC50: < 0.1 µM

CN(C)C(=O)c1cc2cc(C3=CCCN(C(=O)CCn4ccnn4)C3)cc(CN3CC(N)C3)c2o1 [Example I-1180]
IC50: < 0.1 µM

COc1ccccc1-c1cc(C2=CCCN(C(=O)CCn3ccnn3)C2)c(F)c2[nH]c(C(=O)N3CCN(C4CC5CCC4C5)CC3)cc12 (centres unmarked) [Example I-1181]
IC50: < 0.1 µM

COc1ccccc1-c1cc(C2=CCCN(C(=O)CCn3ccnn3)C2)c(F)c2[nH]c(C(=O)N3CCN(Cc4c(C)nn(C)c4C)CC3)cc12 [Example I-1182]
IC50: < 0.1 µM

COc1ccccc1-c1cc(C2=CCCN(C(=O)CCn3ccnn3)C2)c(F)c2[nH]c(C(=O)N3CCN(CC4(C)COC4)CC3)cc12 [Example I-1183]
IC50: < 0.1 µM

COc1ccccc1-c1cc(C2=CCCN(C(=O)CCn3ccnn3)C2)c(F)c2[nH]c(C(=O)N3CCN(CC4CCCO4)CC3)cc12 (centres unmarked) [Example I-1184]
IC50: < 0.1 µM

COc1ccccc1-c1cc(C2=CCCN(C(=O)CCn3ccnn3)C2)c(F)c2[nH]c(C(=O)N3CCN(Cc4nc(C)cs4)CC3)cc12 [Example I-1185]
IC50: < 0.1 µM

CC(=O)N1CCN(c2cc(C3=CCCN(C(=O)CCn4ccnn4)C3)cc3cc(C(=O)N(C)C)oc23)CC1 [Example I-1186]
IC50: < 0.1 µM

CN(C)C(=O)c1cc2ccc(C3CCCN(C(=O)CCn4ccnn4)C3)cc2[nH]1 (centres unmarked) [Example I-1188]
IC50: 0.1 to 1 µM

CN(C)C(=O)c1cc2ccc([C@H]3CCCN(C(=O)CCn4ccnn4)C3)cc2[nH]1 [Example I-1189]
IC50: 0.1 to 1 µM

COc1ccccc1-c1cc(C2=CCCN(C(=O)C(C)C)C2)c(F)c2cc(C(=O)N(C)C)oc12 [Example I-1190]
IC50: 0.1 to 1 µM

CN(C)C(=O)c1cc2c(F)c(C3=CCCN(C(=O)C4Cc5ccccc5CN4C=O)C3)ccc2o1 (centres unmarked) [Example I-1192]
IC50: 1 to 10 µM

COc1ccccc1-c1cc(C2CCCN(C(=O)CCn3ccnn3)C2)c(F)c2[nH]c(C(=O)N(C)C)cc12 (centres unmarked) [Example I-1193]
IC50: < 0.1 µM

COc1ccccc1-c1cc([C@H]2CCCN(C(=O)CCn3ccnn3)C2)c(F)c2[nH]c(C(=O)N(C)C)cc12 [Example I-1195]
IC50: > 100 µM

COc1ccc(C)cc1-c1cc(C2=CCCN(C(=O)C3Cc4ccccc4CN3C=O)C2)cc2cc(C(=O)N(C)C)oc12 (centres unmarked) [Example I-1197]
IC50: 0.1 to 1 µM
